The values that follow come from patent publication US10736320B2, “Pesticidally active polycyclic derivatives with 5-membered sulfur containing heterocyclic ring systems” (Syngenta Participations AG, priority 2015, dated 2020).

SMILES strings stand for the structures.

As a reminder, the mortality is the percentage killed. A word on the melting point: it is the temperature, or range, at which the solid turns liquid.

Data set [1] has as its system Diabrotica balteata (corn root worm). Nature of the data set: Insecticidal action against Diabrotica balteata (corn root worm), sprayed maize sprouts. The class given is in vivo. As to conditions: 96 h, application rate of 200 ppm, L2 larvae, 4 days after infestation. The method, then: Maize sprouts, placed on an agar layer in 24-well microtiter plates were treated with aqueous test solutions prepared from 10,000 ppm DMSO stock solutions by spraying. After drying, the plates were infested with L2 larvae (6 to 10 per well). The samples were assessed for mortality 4 days after infestation.

Data set [2] concerns Plutella xylostella (diamond back moth). Nature of the data set: Insecticidal action against Plutella xylostella (diamond back moth), treated artificial diet. The class given is in vivo. As to conditions: 120 h, application rate of 200 ppm, L2 larvae, 5 days after infestation, read-out: effect in at least one of the two categories (mortality or growth inhibition). The method, then: 24-well microtiter plates with artificial diet were treated with aqueous test solutions prepared from 10,000 ppm DMSO stock solutions by pipetting. After drying, the plates were infested with L2 larvae (10 to 15 per well). The samples were assessed for mortality and growth inhibition in comparison to untreated samples 5 days after infestation.

The subject of data set [3] is Spodoptera littoralis (Egyptian cotton leaf worm). Nature of the data set: Insecticidal action against Spodoptera littoralis (Egyptian cotton leaf worm), sprayed cotton leaf discs. The note with it: foliar, 72 h, application rate of 200 ppm, L1 larvae, 3 days after infestation, read-out: control (at least one of mortality, anti-feedant effect, and growth inhibition). The class given is in vivo. The method, then: Cotton leaf discs were placed on agar in 24-well microtiter plates and sprayed with aqueous test solutions prepared from 10,000 ppm DMSO stock solutions. After drying the leaf discs were infested with five L1 larvae. The samples were assessed for mortality, anti-feedant effect, and growth inhibition in comparison to untreated samples 3 days after infestation. Control of Spodoptera littoralis by a test sample is when at least one of mortality, anti-feedant effect, and growth inhibition is higher than the untreated sample.

The subject of data set [4] is Myzus persicae (green peach aphid). Nature of the data set: Insecticidal action against Myzus persicae (green peach aphid), sprayed sunflower leaf discs. The format is in vivo. The note with it: foliar, 144 h, application rate of 200 ppm, aphid population of mixed ages, 6 days after infestation. The method, then:
Sunflower leaf discs were placed on agar in a 24-well microtiter plate and sprayed with aqueous test solutions prepared from 10,000 ppm DMSO stock solutions. After drying, the leaf discs were infested with an aphid population of mixed ages. The samples were assessed for mortality 6 days after infestation.

The subject of data set [5] is Spodoptera littoralis (Egyptian cotton leaf worm). Nature of the data set: Insecticidal action against Spodoptera littoralis (Egyptian cotton leaf worm), uptake by lettuce roots from agar. The class given is in vivo. As to conditions: 144 h, test rate of 12.5 ppm, 6 days after infestation, read-out: effect in at least one of the three categories (mortality, anti-feedancy, or growth inhibition). The source says: Test compounds were applied by pipette from 10,000 ppm DMSO stock solutions into 24-well plates and mixed with agar. Lettuce seeds were placed on the agar and the multi well plate was closed by another plate which contains also agar. After 7 days the roots have absorbed the compound and the lettuce has grown into the lid plate. The lettuce leafs were now cut off into the lid plate. Spodoptera eggs were pipetted through a plastic stencil on a humid gel blotting paper and the plate closed with it. The samples were assessed for mortality, anti-feedant effect and growth inhibition in comparison to untreated samples 6 days after infestation.

Turning to `CCS(=O)(=O)c1cc(C(F)(F)F)ccc1-c1nnc(-c2ccc(C(F)(F)F)nc2)s1` [Compound P1, 2-[2-ethylsulfonyl-4-(trifluoromethyl)phenyl]-5-[6-(trifluoromethyl)-3-pyridyl]-1,3,4-thiadiazole], the mortality at 200 ppm in data set [1] and in data set [3] was at least 80% each time. In data set [2], the percent effect (mortality or growth inhibition) at 200 ppm was at least 80%.

In the case of `CCSc1cc(C(F)(F)F)ccc1-c1nnc(-c2ccc(C(F)(F)F)nc2)s1` [Compound P2, 2-[2-ethylsulfanyl-4-(trifluoromethyl)phenyl]-5-[6-(trifluoromethyl)-3-pyridyl]-1,3,4-thiadiazole], the melting point was in the range of 170 to 172 °C.

As to `CCSc1cc(C(F)(F)F)ccc1-c1nnc(-c2cncc(C(F)(F)F)c2)s1` [Compound P3, 2-[2-ethylsulfanyl-4-(trifluoromethyl)phenyl]-5-[5-(trifluoromethyl)-3-pyridyl]-1,3,4-thiadiazole], the melting point fell in the range of 143 to 145 °C.

For `CCS(=O)(=O)c1cc(C(F)(F)F)ccc1-c1nnc(-c2cncc(C(F)(F)F)c2)s1` [Compound P4, 2-[2-ethylsulfonyl-4-(trifluoromethyl)phenyl]-5-[5-(trifluoromethyl)-3-pyridyl]-1,3,4-thiadiazole], the mortality at 200 ppm in data set [1], in data set [4] and in data set [3] was at least 80% throughout. Also, in data set [2], the percent effect (mortality or growth inhibition) at 200 ppm is at least 80%. In addition, the percent control (mortality, anti-feedancy or growth inhibition) at 12.5 ppm in data set [5] is at least 80%.

Take `CCSc1cc(C(F)(F)F)cnc1-c1nnc(-c2cncc(C(F)(F)F)c2)s1` [Compound P5, 2-[3-ethylsulfanyl-5-(trifluoromethyl)-2-pyridyl]-5-[5-(trifluoromethyl)-3-pyridyl]-1,3,4-thiadiazole]: the melting point was 151 to 153 °C.

Regarding `CCS(=O)(=O)c1cc(C(F)(F)F)cnc1-c1nnc(-c2cncc(C(F)(F)F)c2)s1` [Compound P6, 2-[3-ethylsulfonyl-5-(trifluoromethyl)-2-pyridyl]-5-[5-(trifluoromethyl)-3-pyridyl]-1,3,4-thiadiazole], the mortality at 200 ppm in data set [1] and in data set [3] was at least 80% in each case. Besides, the percent effect (mortality or growth inhibition) at 200 ppm in data set [2] was at least 80%.

Turning to `CCSc1cc(C(F)(F)F)ccc1-c1ncc(-c2ccc(C(F)(F)F)nc2)s1` [Compound P7, 2-[2-ethylsulfanyl-4-(trifluoromethyl)phenyl]-5-[6-(trifluoromethyl)-3-pyridyl]thiazole], the percent effect (mortality or growth inhibition) at 200 ppm in data set [2] was at least 80%.

As to `CCS(=O)(=O)c1cc(C(F)(F)F)ccc1-c1ncc(-c2ccc(C(F)(F)F)nc2)s1` [Compound P8, 2-[2-ethylsulfonyl-4-(trifluoromethyl)phenyl]-5-[6-(trifluoromethyl)-3-pyridyl]thiazole], the mortality at 200 ppm in data set [1] and in data set [3] was at least 80% each time. For the same compound, the percent effect (mortality or growth inhibition) at 200 ppm in data set [2] was at least 80%.

On to `CCS(=O)(=O)c1cc(C(F)(F)F)ccc1-c1ncc(-c2cncc(C(F)(F)F)c2)s1` [Compound P9, 2-[2-ethylsulfonyl-4-(trifluoromethyl)phenyl]-5-[5-(trifluoromethyl)-3-pyridyl]thiazole], for which the mortality at 200 ppm in data set [1] and in data set [3] was at least 80% in each case.

As to `CCS(=O)(=O)c1cc(C(F)(F)F)cnc1-c1nnc(-c2cc(C(F)(F)F)ccn2)s1` [Compound P10, 2-[3-ethylsulfonyl-5-(trifluoromethyl)-2-pyridyl]-5-[4-(trifluoromethyl)-2-pyridyl]-1,3,4-thiadiazole], the mortality at 200 ppm in data set [1] and in data set [3] was at least 80% in each case.

In turn, `CCS(=O)(=O)c1cc(C(F)(F)F)cnc1-c1nccs1` [Compound P11, 2-[3-ethylsulfonyl-5-(trifluoromethyl)-2-pyridyl]thiazole] registered a melting point of 110 to 112 °C.

Regarding `CCS(=O)(=O)c1cc(C(F)(F)F)cnc1-c1ncc(-c2cc(C(F)(F)F)ccn2)s1` [Compound P12, 2-[3-ethylsulfonyl-5-(trifluoromethyl)-2-pyridyl]-5-[4-(trifluoromethyl)-2-pyridyl]thiazole], the melting point lay within 173 to 175 °C.

For the compound `CCS(=O)(=O)c1cc(C(F)(F)F)cnc1-c1ncc(-c2ccc(C(F)(F)F)cn2)s1` [Compound P13, 2-[3-ethylsulfonyl-5-(trifluoromethyl)-2-pyridyl]-5-[5-(trifluoromethyl)-2-pyridyl]thiazole], the melting point is 208 to 210 °C.

For `CCS(=O)(=O)c1cc(C(F)(F)F)cnc1-c1ncc(-c2cncc(C(F)(F)F)c2)s1` [Compound P14, 2-[3-ethylsulfonyl-5-(trifluoromethyl)-2-pyridyl]-5-[5-(trifluoromethyl)-3-pyridyl]thiazole], in data set [3], the mortality at 200 ppm was at least 80%.

On to `CCS(=O)(=O)c1cc(C(F)(F)F)cnc1-c1ncc(-c2ccc(C(F)(F)F)nc2)s1` [Compound P15, 2-[3-ethylsulfonyl-5-(trifluoromethyl)-2-pyridyl]-5-[6-(trifluoromethyl)-3-pyridyl]thiazole], for which the melting point is 228 to 230 °C.

`CCS(=O)(=O)c1cc(-c2ncccn2)cnc1-c1nnc(-c2cncc(C(F)(F)F)c2)s1` [Compound P16, 2-(3-ethylsulfonyl-5-pyrimidin-2-yl-2-pyridyl)-5-[5-(trifluoromethyl)-3-pyridyl]-1,3,4-thiadiazole] came in with a mortality at 200 ppm in data set [1] of at least 80%.

In the case of `CCS(=O)(=O)c1ccc(-c2ncccn2)nc1-c1nnc(-c2cncc(C(F)(F)F)c2)s1` [Compound P17, 2-(3-ethylsulfonyl-6-pyrimidin-2-yl-2-pyridyl)-5-[5-(trifluoromethyl)-3-pyridyl]-1,3,4-thiadiazole], in data set [1], the mortality at 200 ppm was at least 80%. In addition, the percent effect (mortality or growth inhibition) at 200 ppm in data set [2] was at least 80%.

`CCS(=O)(=O)c1cc(C2CC2)cnc1-c1nnc(-c2cc(C(F)(F)F)ccn2)s1` [Compound P18, 2-(5-cyclopropyl-3-ethylsulfonyl-2-pyridyl)-5-[4-(trifluoromethyl)-2-pyridyl]-1,3,4-thiadiazole]: the mortality at 200 ppm in data set [1] and in data set [3] was at least 80% each time. Moreover, in data set [2], the percent effect (mortality or growth inhibition) at 200 ppm was at least 80%.

Consider `CCS(=O)(=O)c1cc(C2CC2)cnc1-c1nnc(-c2cncc(C(F)(F)F)c2)s1` [Compound P19, 2-(5-cyclopropyl-3-ethylsulfonyl-2-pyridyl)-5-[5-(trifluoromethyl)-3-pyridyl]-1,3,4-thiadiazole], for which the mortality at 200 ppm in data set [1], in data set [4] and in data set [3] was at least 80% each time. In data set [2], the percent effect (mortality or growth inhibition) at 200 ppm was at least 80%.

As to `CCS(=O)(=O)c1ccc(C2CC2)nc1-c1nnc(-c2cncc(C(F)(F)F)c2)s1` [Compound P20, 2-(6-cyclopropyl-3-ethylsulfonyl-2-pyridyl)-5-[5-(trifluoromethyl)-3-pyridyl]-1,3,4-thiadiazole], the mortality at 200 ppm in data set [1] and in data set [3] was at least 80% each time. Also, in data set [2], the percent effect (mortality or growth inhibition) at 200 ppm is at least 80%.

With `CCS(=O)(=O)c1cc(C(F)(F)F)cnc1-c1nnc(-c2ccc(C(F)(F)F)nc2)s1` [Compound P21, 2-[3-ethylsulfonyl-5-(trifluoromethyl)-2-pyridyl]-5-[6-(trifluoromethyl)-3-pyridyl]-1,3,4-thiadiazole], the melting point fell in the range of 193 to 195 °C.
